Measured values: ChEMBL document CHEMBL1149848, “Prenylated flavonoid derivatives from the bark of Erythrina addisoniae” (J Nat Prod, 2008)
The source made the active and inactive calls. No cut-off for these calls is given here.

Experiments:
Assay type in all cases: functional, cell-based
[1] = Cytotoxicity against rat H4IIE cells after 24 hrs by MTT assay
[2] = tested on: H4IIE; assay: Cytotoxicity against rat H4IIE cells assessed as caspase-3/7 activation after 24 hrs by Apo-ONE assay
[3] = tested on: H4IIE; assay: Cytotoxicity against rat H4IIE cells assessed as nuclear fragmentation after 24 hrs by Hoechst staining

Work on `O=C1C[C@@H](c2ccc(O)cc2)Oc2cc(O)ccc21` [LIQUIRTIGENIN] yielded an IC50 [1] of over 100 µM.

For `COc1c(CC=C(C)C)cc([C@@H]2CC(=O)c3c(O)cc(O)cc3O2)cc1CC=C(C)C`, the IC50 [1] was 5 µM.

For `C=C(C)C(O)Cc1cc([C@@H]2CC(=O)c3c(O)cc(O)cc3O2)cc(CC=C(C)C)c1O` (some centres not stated) [ABYSSINOFLAVANONE VII], the Activity [2] was “Active”, the Activity [3] was “Active” and the IC50 [1] was 3.5 µM.

For `O=C1C[C@@H](c2ccc(O)cc2)Oc2cc(O)cc(O)c21` [NARINGENIN], the IC50 [1] was over 100 µM.

Molecule `CC(C)=CCc1cc([C@@H]2CC(=O)c3ccc(O)cc3O2)cc(CC=C(C)C)c1O` [ABYSSINONE IV] has an IC50 [1] of 15 µM.
